Results on 3 compounds are retold here after PMC12728655, “Engineering an Artificial Myxopyronin Derivative with Enhanced Metabolic Stability via Mutasynthesis” (JACS Au, 2025).

≈ marks a conversion by molar mass, not a printed value.

The test system of this experiment is Rif^R-M. tuberculosis H37Rv. The experiment can be described thus: microbe, parasite or virus in culture. To be noted: Mycobacterium tuberculosis. Format: cell-based.
`COC(=O)N/C=C/CC[C@@H](C)c1cc(O)c(C(=O)/C(C)=C/C=C(\C)CCC(F)(F)F)c(=O)o1` [MYX (8)] gave an MIC of 1 µg/mL (≈ 2.12 µM).
Consider `CCC/C(C)=C/C=C(\C)C(=O)c1c(O)cc([C@H](C)CC/C=C/NC(=O)OC)oc1=O` [MYX A (1), myxopyronins A], for which the MIC was in the range of 2 to 4 µg/mL (≈ 4.79 to 9.58 µM).
Regarding `CO[C@H]1/C=C/O[C@@]2(C)Oc3c(C)c(O)c4c(O)c(c(/C=N/N5CCN(C)CC5)c(O)c4c3C2=O)NC(=O)/C(C)=C\C=C\[C@H](C)[C@H](O)[C@@H](C)[C@@H](O)[C@@H](C)[C@H](OC(C)=O)[C@@H]1C` [rifampin], the MIC is > 64 µg/mL.
